Measurements: US20250228954A1, “Designing Antisense Oligonucleotide Delivery Peptides by Interpretable Machine Learning” (Sarepta Therapeutics, Inc., priority 2020, published 2025)
Square brackets hold non-standard residues; d marks the D form. Ends that are not written are not given here. Ahx = NCCCCCC(=O)O; βAla = NCCC(=O)O

Test system: HeLa 654 cells
Experiment: HeLa-654 eGFP assay (corrective splicing / exon skipping by PMO IVS2-654)
Type: cell-based, human
Details: 5 μM, 22 h; for FOLD OVER PMO: eGFP fluorescence of PMO-peptide conjugate relative to unconjugated PMO
Experimental: With the 36 constructs synthesized, the ability to modulate PMO activity using the modified HeLa cell assay was tested. The HeLa-654 cells were stably transfected to express a nonfluorescent eGFP protein. The eGFP gene is interrupted by a mutant intron from the human β-globin gene (IVS2-654). The insertion alters pre-mRNA splicing to cause retention of a fragment in the mature mRNA that results in a nonfluorescent protein. PMO IVS2-654 base-pairs with the B-globin insertion, modifies mRNA splicing, and thereby leads to expression of fluorescent eGFP.
For treatment, the crude reaction mixture was diluted to 5 μM in media. The concentration of the modular construct was calculated based on the original concentration of the module 1-2 conjugate mixed in the reaction. Using media containing 10% fetal bovine serum (FBS), the cells were treated with each construct for 22 hours, after which the cellular fluorescence was measured by flow cytometry.
From the lists of hundreds of predicted peptide sequences, twenty candidates were selected that varied in length, charge, and predicted activity to synthesize and test. Just as with the PMO-peptide library, the PMO-Mach constructs were first tested for PMO delivery in the HeLa 654 assay at 5 μM in complete media for 22 hours and analyzed by flow cytometry (FIG. 14). Experiments were conducted using three technical triplicates and two or three biological replicates.
HeLa 654 cells were maintained in MEM supplemented with 10% (v/v) fetal bovine serum (FBS) and 1% (v/v) penicillin-streptomycin at 37° C. and 5% CO2. Eighteen hours prior to treatment, the cells were plated at a density of 5,000 cells per well in a 96-well plate in MEM supplemented with 10% FBS and 1% penicillin-streptomycin. The day of the experiment, the 384 well plate containing the crude reaction mixtures in DMSO was diluted to 100 μM by the addition of 16.8 μL of PBS to the 3.2 μL reaction mixture. Then, each construct was diluted to 5 μM in MEM supplemented with 10% FBS and 1% penicillin-streptomycin. Cells were incubated with each conjugate at a concentration of 5 μM for 22 hours at 37° C. and 5% CO2. Next, the treatment media was aspirated the cells were incubated with Trypsin-EDTA 0.25% for 15 min at 37° C. and 5% CO2, washed 1× with PBS, and resuspended in PBS with 2% FBS and 2 μg/mL propidium iodide. Flow cytometry analysis was carried out on a BD LSRII flow cytometer. Gates were applied to the data to ensure that cells that were highly positive for propidium iodide or had forward/side scatter readings that were sufficiently different from the main cell population were excluded. Each sample was capped at 5,000 gated events.
Analysis was conducted using Graphpad Prism 7. For each sample, the mean fluorescence intensity and the number of gated cells was measured (FIGS. 8 and 9) and the intensity multiplied by the cell number was calculated (FIG. 7).

| Substance | FOLD OVER PMO | PMO delivery / activity, result in words |
| --- | --- | --- |
| MACH 6: PMO IVS2-654 conjugate of peptide ALKBRSAAKAVRWPKKAIKQASKKVAKYALKXXRKKKAASKXWLQLHWPRW (SEQ ID NO: 62) (ALK[βAla]RSAAKAVRWPKKAIKQASKKVAKYALK[Ahx][Ahx]RKKKAASK[Ahx]WLQLHWPRW; also: PMO IVS2-654 conjugate) | 43 | – |
| MACH 11: PMO IVS2-654 conjugate of peptide TSNLKLHLAPPVKKKALKKPLYKAKKKKKVVSPTWXTDQEW (SEQ ID NO: 66), designed to have poor activity (TSNLKLHLAPPVKKKALKKPLYKAKKKKKVVSPTW[Ahx]TDQEW; also: PMO IVS2-654 conjugate) | 4 | did not significantly improve PMO delivery |
| P1: PMO IVS2-654 conjugate of peptide KXKKQQGKKKHR (SEQ ID NO: 69) (K[Ahx]KKQQGKKKHR; also: PMO IVS2-654 conjugate) | 2.9 | – |
| P11: PMO IVS2-654 conjugate of peptide KKKKKQCKKKHRWPKXXC (SEQ ID NO: 79) (KKKKKQCKKKHRWPK[Ahx][Ahx]C; cysteine pairing not given here; also: PMO IVS2-654 conjugate) | 12.9 | – |
